# Tests used:
# HUVECs [1] = experiment: […] migration assay; type: cell-based, human; details: TRANSWELL
# Method: Specificity of the inhibitory effect of DUF2C5 was determined by EC migration induced by different stimuli in a […] migration assay. HUVECs migrated toward 2.2 nmol/L VEGF, 50 ng/mL basic fibroblast growth factor (bFGF), or 1 μmol/L sphingosine-1-phosphate (S1P) were visualized by hematoxylin staining, and number of migrated cells were counted. Data are expressed as means±SEM. N=3. *P<0.05 (one-way analysis of variance and Bonferroni multiple comparisons test).
# (§1) Collagen invasion assay was performed as previously described (Kang, et al. (2011) J. Biol. Chem. 286:42017-26). In vitro capillary network formation on […] (BD Biosciences, San Jose, Calif.) and scratch wound healing assay were performed as previously described (Humtsoe, et al. (2010) Mol. Cell Biol. 30:1593-1606). Fibrin gel sprouting assay was performed as described by Nakatsu & Hughes ((2008) Methods Enzymol. 443:65-82). VEGF (2.2 nmol/L) stimulation was used for all in vitro angiogenesis assays. Transwell migration assay was performed as described by Kaplan, et al. ((2011) Free Radical Res. 45:1124-35) using VEGF (4.4 nmol/L), sphingosine-1-phosphate (S1P) (1 μmol/L), or basic fibroblast growth factor (bFGF) (50 ng/mL) in the presence or absence of kinesin-derived angiogenesis inhibitor (DUF2C5; residues 1238-1260 of KIF13B) at varying concentrations.
# (§2) EC migration in response to DUF2C5 was determined using the scratch wound healing assay. […] The […] migration assay was also employed to determine whether the inhibitory effect of DUF2C5 on EC migration was specific to VEGF. HUVECs were placed in the […] chamber with or without DUF2C5 or CT23. […] PBS and CT23 had no effect on EC migration induced by all stimuli.
# [2] = system: choroidal neovascularization; experiment: laser-induced choroidal neovascularization (CNV); type: in vivo, mouse; details: eye drop, 2 μg/eye daily
# Method: FIG. 5A and FIG. 5B show the effect of DUF2C5 treatment on laser-induced CNV. FIG. 5A, Dose-dependent effect of DUF2C5 was tested by intravitreal injection of DUF2C5 0.5 μg, 2 μg, and 10 μg after laser photocoagulation. Neovascularization was assessed by the area of ILB4-staining, and plotted in the graph (N=5 mice in each group, and 4 laser burns were induced in each mouse). Asterisks indicate p<0.05, One-way ANOVA. FIG. 5B, Effect of DUF2C5 as an eye drop was tested in CNV model. After laser photocoagulation, mice were treated daily with either control peptide (2 μg/eye) or DUF2C5 (2 μg/eye) for […]. Neovascularization was assessed by the area of ILB4-staining, and plotted in the graph (N=7 mice in each group, and 4 laser burns were induced in each mouse). Asterisks indicate p<0.05, t-test. […]
# Choroidal neovascularization was evaluated by ocular coherence tomography (OCT) and fluorescein angiography at day 7 and 14. […]
# The experiments were terminated at day 14 after taking images of OCT and angiography. […] The area of vascular leakage and CNV was quantified using confocal image of CNV staining for lectin B4 using MetaMorph software. Data was plotted and analyzed statistically with Prism 6 (Graph Pad, San Diego Calif.). […]
# The effect of DUF2C5 as an eye drop was subsequently tested. […] Neovascularization was assessed by OCT, fluorescein angiography, and staining with ILB4.
# EGFR = target: T1, EGFR (Homo sapiens, UniProt P00533); experiment: pull-down on streptavidin beads followed by mass spec analysis; type: binding; details: peptide immobilized on streptavidin beads
# T1 construct: endogenous in cells
# Method: (§3) Additionally, the sequence of DUF2C5 is highly conserved in mammalian KIF13B. […] To further test the specificity of DUF2C5, pull-down of proteins was conducted using DUF2C5 or control peptide (CT23) immobilized on streptavidin beads followed by mass spec analysis of the binding proteins. This analysis detected the presence of KIF13B, VEGFR2, and co-receptor NRP1 (number of hits were 28, 11, and 5, respectively). Tie2, Par1, S1PR1, and FGFR were not found. Other cargo for KIF13B (e.g., CentA, hDlg) were also not found. […] The affinity of each receptor tyrosine kinase was subsequently tested via surface plasmon resonance (SPR) with BIACORE (UIC, RRC), using DUF2C5 and CT23 on an avidin-coated chip, and recombinant cytosolic domain of kinases (Fisher Scientific).
# PDGFRβ = target: T2, PDGFRβ (Homo sapiens, UniProt P09619); experiment: as above; type: binding; details: peptide immobilized on streptavidin beads
# T2 construct: endogenous in cells
# T2 sequence (P09619 33-1106): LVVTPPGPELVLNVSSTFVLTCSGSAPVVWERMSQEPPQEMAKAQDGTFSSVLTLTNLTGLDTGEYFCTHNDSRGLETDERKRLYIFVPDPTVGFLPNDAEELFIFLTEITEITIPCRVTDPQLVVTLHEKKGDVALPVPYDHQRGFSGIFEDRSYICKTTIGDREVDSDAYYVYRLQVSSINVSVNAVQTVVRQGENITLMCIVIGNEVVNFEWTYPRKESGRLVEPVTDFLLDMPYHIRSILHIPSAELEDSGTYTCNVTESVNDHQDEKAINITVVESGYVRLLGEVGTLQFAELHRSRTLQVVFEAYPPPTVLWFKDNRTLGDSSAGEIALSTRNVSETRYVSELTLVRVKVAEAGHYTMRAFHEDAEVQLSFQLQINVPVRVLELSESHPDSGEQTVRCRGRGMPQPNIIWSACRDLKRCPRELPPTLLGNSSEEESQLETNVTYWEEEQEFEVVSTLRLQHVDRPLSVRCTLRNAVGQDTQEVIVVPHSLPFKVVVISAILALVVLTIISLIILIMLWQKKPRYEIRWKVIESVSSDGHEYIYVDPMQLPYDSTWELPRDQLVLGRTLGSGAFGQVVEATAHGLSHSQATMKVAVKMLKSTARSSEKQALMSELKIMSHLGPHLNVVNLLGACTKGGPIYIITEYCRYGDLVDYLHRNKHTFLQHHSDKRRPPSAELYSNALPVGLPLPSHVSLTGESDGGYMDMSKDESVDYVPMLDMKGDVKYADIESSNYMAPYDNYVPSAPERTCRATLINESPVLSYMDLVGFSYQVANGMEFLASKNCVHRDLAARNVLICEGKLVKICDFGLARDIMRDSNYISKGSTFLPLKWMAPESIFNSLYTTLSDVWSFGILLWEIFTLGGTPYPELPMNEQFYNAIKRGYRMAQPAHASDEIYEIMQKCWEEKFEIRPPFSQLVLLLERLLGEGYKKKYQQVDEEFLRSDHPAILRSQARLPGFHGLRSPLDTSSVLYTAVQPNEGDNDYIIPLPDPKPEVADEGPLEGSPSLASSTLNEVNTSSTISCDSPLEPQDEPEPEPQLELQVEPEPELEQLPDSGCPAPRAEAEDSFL
# Method: as §3
# PDGFRα = target: T3, PDGFRα (Homo sapiens, UniProt P16234); experiment: as above; type: binding; details: peptide immobilized on streptavidin beads
# T3 construct: endogenous in cells
# T3 sequence (P16234 24-1089): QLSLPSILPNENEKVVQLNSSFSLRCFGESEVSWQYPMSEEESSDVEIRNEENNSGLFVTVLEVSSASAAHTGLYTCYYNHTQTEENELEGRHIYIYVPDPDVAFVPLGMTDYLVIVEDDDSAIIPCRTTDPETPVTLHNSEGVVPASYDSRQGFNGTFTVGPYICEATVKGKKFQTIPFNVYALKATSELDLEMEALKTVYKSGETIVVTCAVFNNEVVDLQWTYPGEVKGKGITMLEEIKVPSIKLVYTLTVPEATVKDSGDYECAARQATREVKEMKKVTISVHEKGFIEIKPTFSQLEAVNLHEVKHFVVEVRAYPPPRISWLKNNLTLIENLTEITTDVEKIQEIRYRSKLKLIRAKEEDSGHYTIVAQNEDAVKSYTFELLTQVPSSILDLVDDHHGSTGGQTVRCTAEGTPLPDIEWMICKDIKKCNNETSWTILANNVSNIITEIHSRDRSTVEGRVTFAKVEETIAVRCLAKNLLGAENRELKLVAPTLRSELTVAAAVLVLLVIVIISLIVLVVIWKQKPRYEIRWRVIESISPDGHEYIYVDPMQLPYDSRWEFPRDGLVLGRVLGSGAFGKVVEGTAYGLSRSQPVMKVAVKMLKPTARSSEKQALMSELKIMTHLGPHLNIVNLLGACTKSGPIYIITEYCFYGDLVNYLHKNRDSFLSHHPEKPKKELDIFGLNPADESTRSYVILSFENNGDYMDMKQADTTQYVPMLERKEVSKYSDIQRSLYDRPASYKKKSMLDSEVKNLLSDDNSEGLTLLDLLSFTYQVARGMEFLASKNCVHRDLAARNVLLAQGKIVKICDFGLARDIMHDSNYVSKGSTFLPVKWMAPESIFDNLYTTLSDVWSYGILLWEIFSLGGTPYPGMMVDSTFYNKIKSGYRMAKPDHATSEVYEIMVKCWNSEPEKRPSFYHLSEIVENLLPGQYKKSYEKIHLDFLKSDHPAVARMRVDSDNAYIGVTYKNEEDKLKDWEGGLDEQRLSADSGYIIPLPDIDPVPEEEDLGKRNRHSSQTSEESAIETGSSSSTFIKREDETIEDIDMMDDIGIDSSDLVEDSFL
# Method: as §3
# HUVECs [3] = experiment: scratch wound healing assay; type: cell-based, human
# Method: as §1, §2
# VEGFR2 = VEGFR2 (Homo sapiens, UniProt P35968); experiment: surface plasmon resonance (SPR) with BIACORE; type: binding; parameters: recombinant cytosolic domain of kinases (Fisher Scientific); purchased Fisher Scientific; details: peptide on avidin-coated chip, recombinant cytosolic domain of kinase
# Sequence of VEGFR2 (P35968 786-1356 limits assumed, species assumed): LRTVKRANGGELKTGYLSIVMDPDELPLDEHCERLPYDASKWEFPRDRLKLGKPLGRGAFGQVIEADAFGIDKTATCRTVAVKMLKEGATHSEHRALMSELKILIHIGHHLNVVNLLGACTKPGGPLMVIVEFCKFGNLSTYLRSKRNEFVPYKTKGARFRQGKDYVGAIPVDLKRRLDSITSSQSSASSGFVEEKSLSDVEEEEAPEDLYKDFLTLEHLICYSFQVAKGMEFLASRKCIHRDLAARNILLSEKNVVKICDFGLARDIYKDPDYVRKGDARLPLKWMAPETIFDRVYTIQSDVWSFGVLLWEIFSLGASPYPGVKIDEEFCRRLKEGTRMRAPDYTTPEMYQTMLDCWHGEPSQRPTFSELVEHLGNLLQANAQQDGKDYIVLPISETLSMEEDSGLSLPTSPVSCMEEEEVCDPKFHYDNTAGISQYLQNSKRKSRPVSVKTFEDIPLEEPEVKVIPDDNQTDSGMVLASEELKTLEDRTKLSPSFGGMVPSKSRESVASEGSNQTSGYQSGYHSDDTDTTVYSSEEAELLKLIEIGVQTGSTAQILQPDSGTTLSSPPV
# Method: as §3
# HUVECs [4] = experiment: VEGF-induced proliferation, WST-1 assay; type: cell-based, human; details: 3 μmol/L
# Method: VEGF-induced proliferation and viability of HUVECs were assessed by the WST-1 assay (Roche) as previously described (Cai, et al. (2006) Microvasc. Res. 71:20-31; Jones, eta 1. (2005) Br. J. Pharmacol. 145:1093-102). […] Then HUVECs were stimulated with VEGF (2.2 nmol/L), with and without DUF2C5 (1, 3, and 10 μmol/L), or negative control peptide (CT23, 3 μmol/L) for 48 hours to test VEGF-induced proliferation by WST-1 assay in a 96-well format.
# The effects of DUF2C5 on VEGF-induced proliferation were subsequently determined by the WST-1 assay.
substance,measurement,setting,value
"CT23: negative control, C-terminal 23-amino acid peptide, residues 1650 to 1672 of KIF13B (RVRASELRSFSRMLAGDPGCSPG)",bFGF-induced EC migration,HUVECs [1]; stimulus 50 ng/mL bFGF,had no effect
same,S1P-induced EC migration,HUVECs [1]; stimulus 1 μmol/L S1P,had no effect
same,VEGF-induced EC migration,HUVECs [1]; stimulus VEGF,had no effect
same,neovascularization (laser-induced CNV),[2],did not have any effect
same,"EGFR among binding proteins, number of hits",EGFR,did not interact
same,"PDGFRβ among binding proteins, number of hits",PDGFRβ,did not interact
same,"PDGFRα among binding proteins, number of hits",PDGFRα,did not interact
same,VEGF-induced migration of HUVECs (wound closure),HUVECs [3],migrated and closed the wound
same,"KD value, VEGFR2",VEGFR2,did not bind
same,VEGF-induced proliferation,HUVECs [4],had no effect

# From US11299524B2, “KIF13B-derived peptide and method of inhibiting angiogenesis” (THE BOARD OF TRUSTEES OF THE UNIVERSITY OF ILLINOIS, priority 2016, dated 2022)
